{"source": "patent US20260294885A1", "about": "“TREATMENT OF INFLAMMATORY CONDITIONS COMPRISING IMU-856” (IMMUNIC AG, priority 2023, published 2026)", "key": {"[1]": {"system": "patients with celiac disease", "assay": "Patient-reported symptoms with gluten challenge (Celiac Disease Symptom Diary), Part C", "assay_type": "in vivo, human", "parameters": "key to mean change in bloating / mean change in tiredness: change on 5-point severity scale (1=none to 5=very severe)", "conditions": "for mean change in abdominal pain (SD) / mean change in diarrhea (SD) / mean change in nausea (SD): last day before to first day of gluten challenge, CDSD 5-point scale", "from_the_text": "In an embodiment, the celiac disease patient is experiencing one or more symptoms as assessed by the CDSD Version 2.1® (ImmunogenX LLC) at the start of treatment with IMU-856 or a pharmaceutically acceptable salt or a solvate thereof. The CDSD questionnaire was developed to assess symptom severity in clinical trials in subjects with celiac disease. The CDSD includes five symptoms (diarrhea, abdominal pain, bloating, nausea, tiredness) asking participants about the severity of celiac disease symptoms they experience each day. Subjects rate their symptom severity on a 5-point scale (1=none, 2=mild, 3=moderate, 4=severe, 5=very severe). In various embodiments, the celiac disease patient is experiencing one or more significant or severe symptomatic days (based on CDSD) at the start of treatment with IMU-856 or a pharmaceutically acceptable salt or a solvate thereof.\nImprovement in clinical symptoms of gluten exposure: On the first day of gluten challenge, the placebo group (N=12) experienced a marked average increase in symptoms, as assessed by the Celiac Disease Symptom Diary using a 5-point scale of 0.8 for nausea, 0.8 for abdominal pain, and 0.8 diarrhea. In contrast, among the pooled IMU-856 arms (N=26), these average increases were only 0.4 for nausea, 0.5 for abdominal pain and 0.6 for diarrhea."}, "[2]": {"system": "dextran sodium sulphate (DSS)-induced colitis", "assay": "DSS-induced colitis model in mice (different settings)", "assay_type": "in vivo", "conditions": "different settings of DSS colitis model"}, "[3]": {"system": "patients with celiac disease", "assay": "Phase Ib safety in patients with celiac disease (Part C)", "assay_type": "in vivo, human", "experimental": "In Part A, healthy subjects were randomised to single ascending doses of IMU-856 (10 mg to 160 mg) or placebo. In Part B healthy subjects were randomised to multiple once-daily doses of IMU-856 (40, 80, and 160 mg) or placebo for 14 days. Part C randomised patients with celiac disease who were on a gluten-free diet to multiple once-daily doses of IMU-856 (80 mg and 160 mg) or placebo for 28 days; a once-daily gluten challenge (6 g) was introduced on Day 14 and ended on Day 28. 71 healthy subjects were enrolled in Part A and B (N=19 placebo and N=52 IMU-856) and 43 patients with CelD in Part C (N=14 placebo; N=14 for 80 mg, and N=15 for 160 mg). In Parts A and B, treatment-emergent adverse events (TEAEs) occurred in 24 (73%) and 15 (79%) of subjects receiving any dose of IMU-856 compared to 6 (50%) and 5 (71%) with placebo, respectively. […] In Part C, the most common adverse events with any dose of IMU-856 by preferred term were headache (13 [45%]), nausea (9 [31%]), diarrhoea (8 [28%]), and abdominal distension (7 [24%]). […] In Part C, the mean change in villous height from baseline to Day 29 with 80 mg and 160 mg was −20.9±34.8 μm, and −22.5±51.1 μm, respectively, and −60.3±52.2 μm with placebo. […] Mean change in plasma citrulline increased with 80 mg and 160 mg from baseline to Day 14 (2.4±6.2 and 6.1±5.9 μmol/L, respectively) and from baseline to Day 29 (2.8±7.6 and 2.2±5.3 μmol/L, respectively), but not with placebo (−2.7±5.6 and −4.0±6.5 μmol/L). […] Mean increase in zinc levels from baseline to Day 29 with 80 mg and 160 mg were 0.3±1.4 and 0.9±2.1 μmol/L compared to a mean decrease in placebo (−0.9±2.1 μmol/L). Gluten-induced symptoms were also attenuated by IMU-856.\nFIG. 1 illustrates the flow chart of part C in celiac disease (CelD) designed as proof-of-concept study with a gluten challenge trial. Part C was planned to include a well-controlled celiac disease patient population: The patients were 100% seronegative, indicating absence of ongoing substantial gluten exposure and was performed at sites in Australia and New Zealand. Part C was designed to assess safety, tolerability and pharmacokinetics of IMU-856 and measured also histologic changes, blood biomarkers, nutrient uptake and disease-related symptoms."}, "[4]": {"system": "other histone deacetylases (HDACs)", "assay": "Enzymatic activity of other histone deacetylases", "assay_type": "biochemical"}, "[5]": {"system": "claudin (Cldn)-1", "assay": "Tight junction protein claudin-1 in a TEER model", "assay_type": "cell-based, human", "from_the_text": "In one TEER model, tight junction (TJ)-related proteins were investigated, and a normalisation of TJ proteins (claudin (Cldn)-1 and claudin-2) was observed."}, "[6]": {"conditions": "160 mg (N 11), Day 14 to Day 29"}, "[7]": {"conditions": "160 mg (N 13), Day 13 to Day 14"}, "[8]": {"conditions": "All Active (N 20), Day 14 to Day 29"}, "[9]": {"conditions": "All Active (N 26), Day 13 to Day 14"}, "[10]": {"conditions": "continued treatment during gluten challenge"}}, "note": "“Also recorded” adds a separate entry of the source."}
{"smiles": "Cn1c(COc2cc(C(F)(F)F)ccn2)nnc1[C@H]1CC[C@H](c2cnn([C@H]3CC[C@H](N4CC5(CCO5)C4)CC3)c2)CC1", "note": "[IMU-856, 6-(trans-4-(4-(trans-4-(4-methyl-5-(((4-(trifluoromethyl)pyridin-2-yl)oxy)methyl)-4H-1,2,4-triazol-3-yl)cyclohexyl)-1H-pyrazol-1-yl)cyclohexyl)-1-oxa-6-azaspiro[3.3]heptane]", "values": [{"measurement": "mean change in bloating", "setting": "[1]; 80 mg (N 9), Day 14 to Day 29", "result": "−0.4"}, {"measurement": "mean change in tiredness", "setting": "[1]; 80 mg (N 9), Day 14 to Day 29", "result": "−0.1"}, {"measurement": "mean change in bloating", "setting": "[1]; 80 mg (N 13), Day 13 to Day 14", "result": 0.3}, {"measurement": "mean change in tiredness", "setting": "[1]; 80 mg (N 13), Day 13 to Day 14", "result": 0.2}, {"measurement": "mean change in abdominal pain (SD)", "setting": "[1]; 80 mg (N = 13)", "result": "0.5 (0.78)"}, {"measurement": "mean change in diarrhea (SD)", "setting": "[1]; 80 mg (N = 13)", "result": "0.5 (0.97)"}, {"measurement": "mean change in nausea (SD)", "setting": "[1]; 80 mg (N = 13)", "result": "0.2 (0.69)"}, {"measurement": "mean change in bloating", "setting": "[1]; [6]", "result": "−0.5"}, {"measurement": "mean change in tiredness", "setting": "[1]; [6]", "result": "−0.5"}, {"measurement": "mean change in bloating", "setting": "[1]; [7]", "result": 0.5}, {"measurement": "mean change in tiredness", "setting": "[1]; [7]", "result": 0.5}, {"measurement": "mean change in abdominal pain (SD)", "setting": "[1]; 160 mg (N = 13)", "result": "0.4 (0.87)"}, {"measurement": "mean change in diarrhea (SD)", "setting": "[1]; 160 mg (N = 13)", "result": "0.6 (1.12)"}, {"measurement": "mean change in nausea (SD)", "setting": "[1]; 160 mg (N = 13)", "result": "0.7 (1.03)"}, {"measurement": "mean change in bloating", "setting": "[1]; [8]", "result": "−0.5"}, {"measurement": "mean change in tiredness", "setting": "[1]; [8]", "result": "−0.3"}, {"measurement": "mean change in bloating", "setting": "[1]; [9]", "result": 0.4}, {"measurement": "mean change in tiredness", "setting": "[1]; [9]", "result": 0.3}, {"measurement": "gluten-induced symptoms", "setting": "[1]; Part C", "result": "attenuated"}, {"measurement": "symptoms (nausea, abdominal pain or diarrhea)", "setting": "[1]; after first day of gluten challenge (Day 14), versus placebo", "result": "fewer symptoms"}, {"measurement": "patient-reported ability to perform daily activities", "setting": "[1]; [10]", "result": "improvement"}, {"measurement": "recovery from bloating symptoms", "setting": "[1]; [10]", "result": "recover to a higher extent; also recorded: improvement"}, {"measurement": "recovery from tiredness symptoms", "setting": "[1]; [10]", "result": "recover to a higher extent; also recorded: improvement"}, {"measurement": "protection against acute gluten-induced symptoms", "setting": "[1]; first day of gluten challenge", "result": "initial signal of protection against acute gluten-induced symptoms"}, {"measurement": "protection against chronic gluten-induced symptoms", "setting": "[1]; human, in vivo", "result": "initial signal of protection against chronic gluten-induced symptoms"}, {"measurement": "colon length", "setting": "[2]", "result": "increasing colon length"}, {"measurement": "colon mucosal histology", "setting": "[2]", "result": "improving colon mucosal histology"}, {"measurement": "diarrhea symptoms", "setting": "[2]", "result": "improving diarrhea symptoms"}, {"measurement": "disease severity", "setting": "[2]", "result": "reducing disease severity"}, {"measurement": "serious adverse events", "setting": "[3]", "result": 1}, {"measurement": "abdominal distension (number)", "setting": "[3]; any dose", "result": 7}, {"measurement": "abdominal distension (percentage)", "setting": "[3]; any dose", "result": 24, "unit": "%"}, {"measurement": "diarrhoea (number)", "setting": "[3]; any dose", "result": 8}, {"measurement": "diarrhoea (percentage)", "setting": "[3]; any dose", "result": 28, "unit": "%"}, {"measurement": "headache (number)", "setting": "[3]; any dose", "result": 13}, {"measurement": "headache (percentage)", "setting": "[3]; any dose", "result": 45, "unit": "%"}, {"measurement": "nausea (number)", "setting": "[3]; any dose", "result": 9}, {"measurement": "nausea (percentage)", "setting": "[3]; any dose", "result": 31, "unit": "%"}, {"measurement": "inhibition of enzymatic activity of other HDACs", "setting": "[4]", "result": "does not inhibit"}, {"measurement": "claudin-1", "setting": "[5]", "result": "normalisation"}]}
